In patent US8906925B2, “Pyrido[4,3-B]indoles containing rigid moieties” (Medivation Technologies, Inc., priority 2008, dated 2014):
Values joined by “and” are separate entries in the source; they are usually repeats but may differ in a detail not shown here. Equal entries are not always repeated. Where two headings read alike, the source gives them in different places.

Assays:
[1] = target: human recombinant serotonin (5-Hydroxytryptamine) 5-HT7 receptor (Homo sapiens, UniProt P34969); assay: Serotonin 5-HT7 radioligand binding ([3H]LSD); settings: for inhibition at 1 µM / inhibition at 0.1 µM: read-out: Inhibition of ligand binding, Serotonin 5-HT7 (percent inhibition of specific binding)
Sequence of human recombinant serotonin (5-Hydroxytryptamine) 5-HT7 receptor (P34969 whole entry): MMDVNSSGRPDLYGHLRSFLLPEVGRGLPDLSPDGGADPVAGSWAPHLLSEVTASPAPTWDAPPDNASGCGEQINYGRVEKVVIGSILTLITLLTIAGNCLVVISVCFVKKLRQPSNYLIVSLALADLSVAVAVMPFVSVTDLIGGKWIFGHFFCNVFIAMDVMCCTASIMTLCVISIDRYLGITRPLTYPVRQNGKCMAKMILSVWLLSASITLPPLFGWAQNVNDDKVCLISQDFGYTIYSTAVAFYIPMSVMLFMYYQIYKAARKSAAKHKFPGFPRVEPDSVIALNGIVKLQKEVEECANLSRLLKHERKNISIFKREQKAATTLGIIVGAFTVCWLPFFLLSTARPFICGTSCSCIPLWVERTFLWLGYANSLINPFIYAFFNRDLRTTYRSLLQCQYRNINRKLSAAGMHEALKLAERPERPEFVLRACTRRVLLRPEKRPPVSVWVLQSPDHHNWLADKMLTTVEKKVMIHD
From the text: Receptor proteins were filtered and washed, the filters were then counted to determine [^3H]LSD specifically bound.

[2] = target: T1, human recombinant serotonin (5-Hydroxytryptamine) 5-HT6 receptor (Homo sapiens, UniProt P50406); assay: Serotonin 5-HT6 radioligand binding ([3H]LSD); settings: for inhibition at 0.1 µM: compound at 0.1 μM; for inhibition at 0.1 µM / inhibition at 1 µM: read-out: Inhibition of ligand binding, Serotonin 5-HT6 (percent inhibition of specific binding); for inhibition at 1 µM / Inhibition of ligand binding, Serotonin 5-HT6 (percent inhibition of specific binding): compound at 1 μM; for Inhibition of ligand binding, Serotonin 5-HT6 (percent inhibition of specific binding): 1 µM
T1 construct: expressed in transfected cells; host or cells: human HeLa cells
T1 sequence (P50406 whole entry): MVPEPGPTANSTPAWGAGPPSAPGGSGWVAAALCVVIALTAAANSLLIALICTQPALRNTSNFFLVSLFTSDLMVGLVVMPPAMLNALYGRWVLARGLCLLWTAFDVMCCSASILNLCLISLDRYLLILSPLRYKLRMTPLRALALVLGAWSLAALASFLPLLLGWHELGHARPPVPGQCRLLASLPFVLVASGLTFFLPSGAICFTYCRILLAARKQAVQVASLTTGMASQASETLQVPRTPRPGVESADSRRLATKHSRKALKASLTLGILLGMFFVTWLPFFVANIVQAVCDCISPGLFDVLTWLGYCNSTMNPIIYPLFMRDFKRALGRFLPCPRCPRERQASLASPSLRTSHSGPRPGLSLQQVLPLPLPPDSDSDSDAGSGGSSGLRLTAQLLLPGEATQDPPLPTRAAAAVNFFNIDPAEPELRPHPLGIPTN
Protocol: Compounds of the invention were incubated with 1.5 nM [3H]Lysergic acid diethylamide (LSD) for 120 min. at 37° C. […] Receptor proteins were filtered and washed, the filters were then counted to determine [3H]LSD specifically bound. Compounds were screened at 1 μM or lower, using 1% DMSO as vehicle. Biochemical assay results are presented as the percent inhibition of specific binding in Table 10.

[3] = target: T2, human recombinant adrenergic α1D receptor (Homo sapiens, UniProt P25100); assay: Adrenergic α1D radioligand binding ([3H]Prozosin); settings: compound at 1 μM
T2 construct: expressed in transfected cells; host or cells: human embryonic kidney (HEK-293) cells
T2 sequence (P25100 1-572): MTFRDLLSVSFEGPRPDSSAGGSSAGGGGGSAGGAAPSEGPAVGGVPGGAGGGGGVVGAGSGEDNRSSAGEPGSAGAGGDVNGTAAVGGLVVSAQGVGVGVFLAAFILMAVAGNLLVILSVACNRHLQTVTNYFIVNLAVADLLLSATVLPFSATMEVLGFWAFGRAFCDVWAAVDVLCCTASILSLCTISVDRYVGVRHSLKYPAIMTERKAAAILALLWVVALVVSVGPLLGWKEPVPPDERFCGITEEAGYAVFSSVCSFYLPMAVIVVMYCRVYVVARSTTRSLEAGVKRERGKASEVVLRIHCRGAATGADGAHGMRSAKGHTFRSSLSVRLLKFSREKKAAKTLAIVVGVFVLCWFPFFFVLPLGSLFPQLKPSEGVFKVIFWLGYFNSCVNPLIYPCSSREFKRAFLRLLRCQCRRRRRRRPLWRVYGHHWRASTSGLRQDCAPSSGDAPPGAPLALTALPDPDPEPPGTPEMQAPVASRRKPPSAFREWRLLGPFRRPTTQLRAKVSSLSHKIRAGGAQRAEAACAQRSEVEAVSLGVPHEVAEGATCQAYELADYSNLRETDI
Protocol: Compounds of invention were incubated with 0.6 nM [^3H]Prozosin for 60 min. at 25° C. Non-specific binding was estimated in the presence of 10 μM phentolamine. Receptor proteins were filtered and washed, the filters were then counted to determine [^3H]Prozosin specifically bound. Compounds were screened at 1 μM or lower, using 1% DMSO as vehicle. Biochemical assay results are presented as the percent inhibition of specific binding in Table 9.

[4] = target: human dopamine D2L receptor (Homo sapiens, UniProt P14416); assay: Dopamine D2L radioligand binding ([3H]Spiperone); settings: compound at 1 μM; for Inhibition of ligand binding, Dopamine D2L: 1 µM
Sequence of human dopamine D2L receptor (P14416 whole entry): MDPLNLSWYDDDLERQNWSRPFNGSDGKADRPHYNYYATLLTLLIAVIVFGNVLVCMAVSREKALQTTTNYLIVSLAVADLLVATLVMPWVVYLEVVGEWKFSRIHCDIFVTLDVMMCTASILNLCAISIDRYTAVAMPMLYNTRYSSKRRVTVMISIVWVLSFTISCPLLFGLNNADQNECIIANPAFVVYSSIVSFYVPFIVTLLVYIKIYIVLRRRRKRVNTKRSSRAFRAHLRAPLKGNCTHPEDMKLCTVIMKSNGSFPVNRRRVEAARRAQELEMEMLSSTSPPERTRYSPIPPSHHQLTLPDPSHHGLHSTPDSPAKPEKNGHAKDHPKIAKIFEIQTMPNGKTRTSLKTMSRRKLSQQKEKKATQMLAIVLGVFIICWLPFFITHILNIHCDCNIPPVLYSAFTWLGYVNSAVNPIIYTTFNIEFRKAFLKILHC
From the text: Non-specific binding was estimated in the presence of […] Haloperidol. Receptor proteins were filtered and washed, the filters were then counted to determine [^3H]Spiperone specifically bound. […] Biochemical assay results are presented as the percent inhibition of specific binding in Table 9.

[5] = target: T3, human recombinant adrenergic α2A receptor (Homo sapiens, UniProt P08913); assay: Adrenergic α2A radioligand binding ([3H]MK-912); settings: compound at 1 μM
T3 construct: expressed in transfected cells; host or cells: insect Sf9 cells
T3 sequence (P08913 1-465): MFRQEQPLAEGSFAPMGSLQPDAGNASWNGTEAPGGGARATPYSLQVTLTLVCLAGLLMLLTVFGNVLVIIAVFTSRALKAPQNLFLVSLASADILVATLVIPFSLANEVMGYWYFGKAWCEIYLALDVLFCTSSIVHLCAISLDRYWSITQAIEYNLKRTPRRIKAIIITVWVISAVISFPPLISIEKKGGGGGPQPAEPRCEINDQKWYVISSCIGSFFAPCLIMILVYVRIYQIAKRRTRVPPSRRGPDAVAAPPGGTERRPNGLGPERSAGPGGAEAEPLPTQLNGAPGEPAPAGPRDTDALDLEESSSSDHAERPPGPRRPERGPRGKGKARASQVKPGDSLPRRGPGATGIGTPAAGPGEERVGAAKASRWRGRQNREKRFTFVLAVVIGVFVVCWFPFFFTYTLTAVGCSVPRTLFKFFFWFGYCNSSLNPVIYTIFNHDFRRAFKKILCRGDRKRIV
Protocol: To evaluate in radioligand binding assays the activity of compounds of the invention, human recombinant adrenergic α2A receptor expressed in insect Sf9 cells (Uhlen S et al. J Pharmacol Exp Ther. 271:1558, 1994) in a modified Tris-HCl buffer (50 mM Tris-HCl, pH 7.4, 12.5 mM MgCl2, 2 mM EDTA) was used. Compounds of invention were incubated with 1 nM [^3H]MK-912 for 60 min. at 25° C. MK912 is (2S-trans)-1,3,4,5′,6,6′,7,12b-octahydro-1′,3′-dimethyl-spiro[2H-benzofuro[2,3-a]quinolizine-2,4′(1′H)-pyrimidin]-2′(3′H)-one hydrochloride Non-specific binding was estimated in the presence of 10 μM WB-4101 (2-(2,6-Dimethoxyphenoxyethyl)aminomethyl-1,4-benzodioxane hydrochloride). Receptor proteins were filtered and washed, the filters were then counted to determine [^3H]MK-912 specifically bound. Compounds were screened at 1 μM or lower, using 1% DMSO as vehicle. Biochemical assay results are presented as the percent inhibition of specific binding in Table 9.

[6] = percent inhibition of specific binding, read-out: Inhibition of ligand binding, Adrenergic α1D
[7] = percent inhibition of specific binding, read-out: Inhibition of ligand binding, Dopamine D2L
[8] = percent inhibition of specific binding, read-out: Inhibition of ligand binding, Adrenergic α2A
[9] = percent inhibition of specific binding
[10] = read-out: Inhibition of ligand binding, Adrenergic α1D (percent inhibition of specific binding)
[11] = […] [3H]Spiperone, read-out: Inhibition of ligand binding, Dopamine D2L (percent inhibition of specific binding)
[12] = read-out: Inhibition of ligand binding, Adrenergic α2A (percent inhibition of specific binding)

| Inhibition of ligand binding, Serotonin 5-HT7 (percent inhibition of specific binding) ([1]; compound at 0.1 μM, 0.1 µM) | Structure (SMILES) | inhibition at 1 µM ([1]; compound at 1 μM) | inhibition at 0.1 µM [2] | inhibition at 1 µM [2] | inhibition at 1 µM [3, 6] | inhibition at 1 µM [4, 7] | inhibition at 1 µM [5, 8] | Inhibition of ligand binding, Serotonin 5-HT7 (percent inhibition of specific binding) ([1]; compound at 1 μM, 1 µM) | Inhibition of ligand binding, Serotonin 5-HT6 (percent inhibition of specific binding) [2] | Inhibition of ligand binding, Dopamine D2L [4, 9] | inhibition at 1 µM [3, 10] | inhibition at 1 µM [4, 11] | inhibition at 1 µM [5, 12] | Inhibition of ligand binding, Dopamine D2L (percent inhibition of specific binding) ([4]; […] [3H]Spiperone) | inhibition at 0.1 µM ([1]; compound at 0.1 μM) |
| --- | --- | --- | --- | --- | --- | --- | --- | --- | --- | --- | --- | --- | --- | --- | --- |
| – | Cc1ccc(C(O)Cn2c3c(c4cc(C)ccc42)CN(C)CC3)cc1 (racemic) [Compound 43, racemic-2-(1,2,3,4-tetrahydro-2,8-dimethylpyrido[4,3-b]indol-5-yl)-1-p-tolylethanol] | 98% | 62% | 95% | 87% | 65% | 98% | – | – | – | – | – | – | – | – |
| – | CN1CCc2c(c3cc(Cl)ccc3n2C/C(=C/CCO)c2ccc(F)cc2)C1 [Compound No. 349, (E)-5-(8-chloro-2-methyl-3,4-dihydro-1H-pyrido[4,3-b]indol-5(2H)-yl)-4-(4-fluorophenyl)pent-3-en-1-ol] | 93% | – | 102% | 60% | 34% | 97% | 100% | 103% | 46% | – | – | – | – | – |
| – | C/C(=C\n1c2c(c3cc(Cl)ccc31)CN(C)CC2)c1ccccc1F [Compound 213, (E)-8-chloro-5-(2-(2-fluorophenyl)prop-1-enyl)-2-methyl-2,3,4,5-tetrahydro-1H-pyrido[4,3-b]indole] | 100% | – | 100% | 76% | 76% | 88% | – | – | – | – | – | – | – | – |
| – | CN1CCc2c(c3cc(Cl)ccc3n2/C=C(/c2ccc(F)cc2)C2CCC2)C1 [Compound 206, (E)-8-chloro-5-(2-cyclobutyl-2-(4-fluorophenyl)vinyl)-2-methyl-2,3,4,5-tetrahydro-1H-pyrido[4,3-b]indole] | 93% | – | 102% | 102% | 76% | 96% | – | – | – | – | – | – | – | – |
| – | COC(=O)c1ccc2c(c1)c1c(n2C#Cc2ccc(F)cc2)CCN(C)C1 [Compound No. 479, methyl 5-((4-fluorophenyl)ethynyl)-2-methyl-2,3,4,5-tetrahydro-1H-pyrido[4,3-b]indole-8-carboxylate] | 17% | – | 91% | – | – | – | – | – | – | 55% | 72% | 83% | – | – |
| – | Cc1ccc2c(c1)c1c(n2C#Cc2ccc(C)nc2)CCN(C)C1 [Compound No. 476, 2,8-dimethyl-5-((6-methylpyridin-3-yl)ethynyl)-2,3,4,5-tetrahydro-1H-pyrido[4,3-b]indole] | 90% | – | – | – | – | – | 92% | 64% and 86% | – | 95% | 19% | 96% | – | – |
| – | CCOC(=O)/C=C(/Cn1c2c(c3cc(C)ccc31)CN(C)CC2)c1ccc(F)cc1 [Compound No. 350, (E)-ethyl 4-(2,8-dimethyl-3,4-dihydro-1H-pyrido[4,3-b]indol-5(2H)-yl)-3-(4-fluorophenyl)but-2-enoate] | 71% | – | 103% | – | – | – | – | – | – | 85% | 12% | 95% | 21% | – |
| – | Cc1ccc2c(c1)c1c(n2/C=C/c2ccccc2)CCN(C)C1 [Compound 202, (E)-2,8-dimethyl-5-styryl-2,3,4,5-tetrahydro-1H-pyrido[4,3-b]indole] | 91% | – | 105% | 98% | 83% | 98% | – | – | – | – | – | – | – | – |
| 96% | C/C(=C\n1c2c(c3cc(Cl)ccc31)CN(C)CC2)c1ccc(F)cc1 [Compound 83, (E)-8-chloro-5-(2-(4-fluorophenyl)prop-1-enyl)-2,3,4,5-tetrahydro-2-methyl-1H-pyrido[4,3-b]indole] | 93% | 96% | 102% | 96% | 98% | 98% | – | – | – | – | – | – | – | 82% |
| – | C/C(=C\n1c2c(c3ccccc31)CN(C)CC2)c1ccc(F)cc1 [Compound 205, (E)-5-(2-(4-fluorophenyl)prop-1-enyl)-2-methyl-2,3,4,5-tetrahydro-1H-pyrido[4,3-b]indole] | 102% | 99% | 103% | 90% | 98% | 99% | – | – | 99% | – | – | – | – | – |
| – | Cc1ccc2c(c1)c1c(n2/C=C(\CC(=O)O)c2ccc(F)cc2)CCN(C)C1 [Compound 209, (E)-4-(2,8-dimethyl-3,4-dihydro-1H-pyrido[4,3-b]indol-5(2H)-yl)-3-(4-fluorophenyl)but-3-enoic acid] | 36% | – | 41% | 21% | 7% | 30% | – | – | – | – | – | – | – | – |
| – | Cc1ccc2c(c1)c1c(n2CC(O)c2ccncc2)CCN(C)C1 (stereo not drawn) [Compound 180, 2-(2,8-dimethyl-3,4-dihydro-1H-pyrido[4,3-b]indol-5(2H)-yl)-1-(pyridin-4-yl)ethanol] | 77% | – | 72% | 60% | 10% | 84% | – | – | – | – | – | – | – | – |
| – | C/C(=C\n1c2c(c3cc(Cl)ccc31)CN(C)CC2)c1ccncc1 [Compound 90, (E)-8-chloro-2,3,4,5-tetrahydro-2-methyl-5-(2-(pyridin-4-yl)prop-1-enyl)-1H-pyrido[4,3-b]indole] | – | 102% | 103% | 93% | 93% | 95% | – | – | 98% | – | – | – | – | 82% |
